{
  "source": "ChEMBL document CHEMBL3272342",
  "about": "“Nonsteroidal antiinflammatory agents. 2. Synthesis and biological activity of 2-chloroindolecarboxylic acids” (J Med Chem, 1977)",
  "key": {"Rattus norvegicus [1]": {"test_system": "Rattus norvegicus", "test": "Antiinflammatory activity in Wistar rat assessed as inhibition of carrageenan-induced edema measured as increase in foot volume at 5 mg/kg, po administered 1 hr prior challenge measured 3 hrs after carrageenin injection (reference value: 187.6 %)", "assay_type": "functional", "parameters": "scale not given: the % may be the effect or the level left"}, "Rattus norvegicus [2]": {"test_system": "Rattus norvegicus", "test": "Antiinflammatory activity in Wistar rat assessed as inhibition of carrageenan-induced edema measured as increase in foot volume at 5 mg/kg, po administered 1 hr prior challenge measured 7 hrs after carrageenin injection (reference value: 178.8 %)", "assay_type": "functional", "parameters": "scale not given: the % may be the effect or the level left"}, "Rattus norvegicus [3]": {"test_system": "Rattus norvegicus", "test": "Antiinflammatory activity in Wistar rat assessed as inhibition of carrageenan-induced edema measured as increase in foot volume at 20 mg/kg, po administered 1 hr prior challenge measured 7 hrs after carrageenin injection (reference value: 178.8 %)", "assay_type": "functional", "parameters": "scale not given: the % may be the effect or the level left"}, "Rattus norvegicus [4]": {"test_system": "Rattus norvegicus", "test": "Antiinflammatory activity in Wistar rat assessed as inhibition of carrageenan-induced edema measured as increase in foot volume at 20 mg/kg, po administered 1 hr prior challenge measured 3 hrs after carrageenin injection (reference value: 187.6 %)", "assay_type": "functional", "parameters": "scale not given: the % may be the effect or the level left"}, "Rattus norvegicus [5]": {"test_system": "Rattus norvegicus", "test": "Antiinflammatory activity in Wistar rat assessed as inhibition of carrageenan-induced edema measured as increase in foot volume at 40 mg/kg, po administered 1 hr prior challenge measured 7 hrs after carrageenin injection (reference value: 178.8 %)", "assay_type": "functional", "parameters": "scale not given: the % may be the effect or the level left"}, "[6]": {"test": "Toxicity in ip dosed Swiss mouse", "assay_type": "organism-based", "settings": "in vivo"}, "Rattus norvegicus [7]": {"test_system": "Rattus norvegicus", "test": "Antiinflammatory activity in Wistar rat assessed as inhibition of carrageenan-induced edema measured as increase in foot volume at 40 mg/kg, po administered 1 hr prior challenge measured 3 hrs after carrageenin injection (reference value: 187.6 %)", "assay_type": "functional", "parameters": "scale not given: the % may be the effect or the level left"}},
  "data": [
    {"smiles": "O=C(O)c1c(Cl)[nH]c2ccccc12", "values": [
      {"measurement": "Activity", "setting": "Rattus norvegicus [1]", "result": 153.1, "unit": "%"},
      {"measurement": "Activity", "setting": "Rattus norvegicus [2]", "result": 143.4, "unit": "%"},
      {"measurement": "Activity", "setting": "Rattus norvegicus [3]", "result": 153.5, "unit": "%"},
      {"measurement": "Activity", "setting": "Rattus norvegicus [4]", "result": 161.7, "unit": "%"},
      {"measurement": "Activity", "setting": "Rattus norvegicus [5]", "result": 132.1, "unit": "%"},
      {"measurement": "LD50", "setting": "[6]", "result": "> 500", "unit": "mg/kg"},
      {"measurement": "Activity", "setting": "Rattus norvegicus [7]", "result": 156.4, "unit": "%"}
    ]},
    {"smiles": "Cn1c(Cl)c(C(=O)O)c2ccccc21", "values": [
      {"measurement": "Activity", "setting": "Rattus norvegicus [1]", "result": 145.1, "unit": "%"},
      {"measurement": "Activity", "setting": "Rattus norvegicus [2]", "result": 133.3, "unit": "%"},
      {"measurement": "Activity", "setting": "Rattus norvegicus [3]", "result": 133.8, "unit": "%"},
      {"measurement": "Activity", "setting": "Rattus norvegicus [4]", "result": 146.5, "unit": "%"},
      {"measurement": "Activity", "setting": "Rattus norvegicus [5]", "result": 150.7, "unit": "%"},
      {"measurement": "LD50", "setting": "[6]", "result": "> 500", "unit": "mg/kg"},
      {"measurement": "Activity", "setting": "Rattus norvegicus [7]", "result": 148.3, "unit": "%"}
    ]},
    {"smiles": "O=C(O)c1c(Cl)n(-c2ccccc2)c2ccccc12", "values": [
      {"measurement": "Activity", "setting": "Rattus norvegicus [1]", "result": 159.8, "unit": "%"},
      {"measurement": "Activity", "setting": "Rattus norvegicus [2]", "result": 151.4, "unit": "%"},
      {"measurement": "Activity", "setting": "Rattus norvegicus [3]", "result": 130.1, "unit": "%"},
      {"measurement": "Activity", "setting": "Rattus norvegicus [4]", "result": 149.4, "unit": "%"},
      {"measurement": "Activity", "setting": "Rattus norvegicus [5]", "result": 201.1, "unit": "%"},
      {"measurement": "LD50", "setting": "[6]", "result": "> 500", "unit": "mg/kg"},
      {"measurement": "Activity", "setting": "Rattus norvegicus [7]", "result": 173.8, "unit": "%"}
    ]},
    {"smiles": "O=C(O)Cc1c(Cl)n(-c2ccccc2)c2ccccc12", "values": [
      {"measurement": "Activity", "setting": "Rattus norvegicus [1]", "result": 170.3, "unit": "%"},
      {"measurement": "Activity", "setting": "Rattus norvegicus [2]", "result": 200.9, "unit": "%"},
      {"measurement": "Activity", "setting": "Rattus norvegicus [3]", "result": 191.8, "unit": "%"},
      {"measurement": "Activity", "setting": "Rattus norvegicus [4]", "result": 165.9, "unit": "%"},
      {"measurement": "Activity", "setting": "Rattus norvegicus [5]", "result": 186.4, "unit": "%"},
      {"measurement": "LD50", "setting": "[6]", "result": "> 500", "unit": "mg/kg"},
      {"measurement": "Activity", "setting": "Rattus norvegicus [7]", "result": 138, "unit": "%"}
    ]},
    {"smiles": "COc1ccc2c(c1)c(CC(=O)O)c(C)n2C(=O)c1ccc(Cl)cc1", "note": "[INDOMETHACIN]", "values": [
      {"measurement": "Activity", "setting": "Rattus norvegicus [1]", "result": 98.5, "unit": "%"},
      {"measurement": "Activity", "setting": "Rattus norvegicus [2]", "result": 106.8, "unit": "%"}
    ]}
  ]
}
